Laboratory results reported in ChEMBL document CHEMBL3792301, “Isatin derivatives with activity against apoptosis-resistant cancer cells” (Bioorg Med Chem Lett, 2016).

How the values were obtained:
[1] = test system: SK-MEL-28; experiment: Antiproliferative activity against apoptosis resistant human SK-MEL-28 cells after 72 hrs by MTT assay; type: functional, cell-based; details: SK-MEL-28, 72 h
[2] = test system: LoVo; experiment: Antiproliferative activity against human LoVo cells after 72 hrs by MTT assay; type: functional, cell-based
[3] = Antiproliferative activity against apoptosis resistant human U373 cells after 72 hrs by MTT assay; type: functional, cell-based, U-373MG ATCC; details: U373 MG
[4] = Antiproliferative activity against apoptosis sensitive mouse B16F10 cells after 72 hrs by MTT assay; type: functional, cell-based; details: B16-F10, 72 h
[5] = Antiproliferative activity against apoptosis sensitive human Hs683 cells after 72 hrs by MTT assay; type: functional, cell-based; details: Hs 683, 72 h
[6] = Antiproliferative activity against apoptosis resistant human OE21 cells after 72 hrs by MTT assay; type: functional, cell-based; details: OE21, 72 h
[7] = Antiproliferative activity against apoptosis sensitive human PC3 cells after 72 hrs by MTT assay; type: functional, cell-based; details: PC-3, 72 h
[8] = test system: A549; experiment: Antiproliferative activity against apoptosis resistant human A549 cells after 72 hrs by MTT assay; type: functional, cell-based; details: A549, 72 h
[9] = test system: MCF7; experiment: Antiproliferative activity against apoptosis sensitive human MCF7 cells after 72 hrs by MTT assay; type: functional, cell-based; details: MCF7, 72 h

Structure (SMILES) | IC50 [1] | IC50 [2] | IC50 [8] | IC50 [9] | IC50 [3] | IC50 [4] | IC50 [5] | IC50 [6] | IC50 [7]
O=C1Nc2c(Br)cccc2/C1=C1/Nc2ccccc2/C1=N\O | 9.8 µM | 5.6 µM | 13.9 µM | 4.9 µM | 6.6 µM | 5.3 µM | 8.1 µM | 3.9 µM | 7.8 µM
O=C1NC(=S)S/C1=C1\C(=O)Nc2ccccc21 | 96.6 µM | 69.3 µM | 99 µM | > 100 µM | 85.3 µM | 73.5 µM | 93.3 µM | 47.2 µM | > 100 µM
O=C1Nc2ccc(Br)cc2/C1=C1/Nc2ccccc2C1=O | > 100 µM | 12 µM | > 100 µM | 37.3 µM | 8.6 µM | 3.8 µM | 14.1 µM | 3.8 µM | > 100 µM
O=C1Nc2ccccc2/C1=C1/Nc2ccccc2/C1=N\O | 26.6 µM | 8.9 µM | 27 µM | 9.2 µM | 18 µM | 5.4 µM | 6 µM | 8.1 µM | 24.3 µM
O=C1Nc2c(Cl)cccc2/C1=C1/Nc2ccccc2/C1=N\O | 40.1 µM | 10.2 µM | 45.2 µM | 27.5 µM | 31.5 µM | 12.9 µM | 25.3 µM | 19.6 µM | 29.7 µM
O=C1Nc2ccccc2/C1=C1/Cc2ccccc2C1=O | > 100 µM | 52.6 µM | > 100 µM | 70.2 µM | > 100 µM | > 100 µM | > 100 µM | 25.1 µM | > 100 µM
O=C1Nc2ccccc2/C1=C1/Oc2ccccc2C1=O | 23.8 µM | 4.1 µM | 23.3 µM | 0.3 µM | 27.7 µM | < 0.01 µM | 25.7 µM | 25.9 µM | 36.1 µM
O=C1Nc2ccc(Br)cc2/C1=C1/Nc2ccccc2/C1=N\O [INDIRUBIN 2] | 17.3 µM | 6.6 µM | 7.2 µM | 5.8 µM | 8 µM | 0.5 µM | 8.4 µM | 3.6 µM | 6.8 µM
O=C1Nc2ccccc2/C1=C1/Nc2ccccc2C1=O [INDIRUBIN] | > 100 µM | > 100 µM | > 100 µM | > 100 µM | > 100 µM | 0.2 µM | > 100 µM | 30.5 µM | > 100 µM

Continued, in another order:

IC50 [1] | IC50 [2] | IC50 [8] | IC50 [9] | Structure (SMILES) | IC50 [3] | IC50 [4] | IC50 [5] | IC50 [6] | IC50 [7]
> 100 µM | 5.2 µM | 60.7 µM | > 100 µM | O=C1NC(=O)/C(=C2/C(=O)Nc3ccccc32)S1 | 86.4 µM | 2.8 µM | 89.7 µM | 38 µM | 67.5 µM
> 100 µM | > 100 µM | > 100 µM | > 100 µM | O=C1Nc2c(Cl)cccc2/C1=C1/Nc2ccccc2C1=O | > 100 µM | 15.7 µM | 55.2 µM | 35.3 µM | > 100 µM
> 100 µM | 42 µM | > 100 µM | 44.8 µM | O=C1Nc2c(F)cccc2/C1=C1/Nc2ccccc2C1=O | 45.8 µM | 16.3 µM | 38.7 µM | 29 µM | > 100 µM
44.6 µM | 9 µM | 33.3 µM | 26.2 µM | O=C1Nc2c(F)cccc2/C1=C1/Nc2ccccc2/C1=N\O | 19.7 µM | 7.8 µM | 9.3 µM | 9.2 µM | 26 µM
> 100 µM | 76.1 µM | 66.5 µM | 94.6 µM | O=C1NC(=O)/C(=C2/C(=O)Nc3ccccc32)N1 | > 100 µM | 73.3 µM | 84.7 µM | 52.3 µM | 95.5 µM
11.7 µM | 37 µM | 3.8 µM | 51 µM | O=C1NC(=S)N/C1=C1\C(=O)Nc2c(Br)cccc21 | 4.7 µM | 5 µM | 40.8 µM | 20.2 µM | 22.8 µM
> 100 µM | 52.8 µM | > 100 µM | 65.2 µM | O=C1Nc2ccc(Br)cc2/C1=C1/Cc2ccccc2C1=O | 41.4 µM | 69.1 µM | 47.3 µM | 56 µM | > 100 µM
53.5 µM | 52.1 µM | 36.2 µM | 82.9 µM | O=C1NC(=S)S/C1=C1\C(=O)Nc2ccc(Br)cc21 | 41.7 µM | 0.1 µM | 93.6 µM | 62.5 µM | 44.3 µM
33.7 µM | 18.7 µM | 28.7 µM | 38.5 µM | O=C1Nc2ccccc2/C1=C1/Cc2ccccc2/C1=N\O | 28 µM | 32.6 µM | 22.9 µM | 27.8 µM | 33.1 µM
62.9 µM | 60.2 µM | 45.8 µM | 87.8 µM | O=C1NC(=S)N/C1=C1\C(=O)Nc2ccccc21 | 51.9 µM | 41.6 µM | 52.9 µM | 38.7 µM | 75.5 µM
> 100 µM | 32.3 µM | > 100 µM | 52.8 µM | O=C1Nc2c(Br)cccc2/C1=C1/Nc2ccccc2C1=O | 8.1 µM | 3.2 µM | 6.9 µM | 8.7 µM | > 100 µM
0.6 µM | 0.3 µM | 0.8 µM | 0.5 µM | CC1(C)CCC2=C(O1)c1ccccc1C(=O)C2=O [LAPACHONE] | 0.4 µM | 0.3 µM | 0.4 µM | 0.6 µM | < 0.01 µM
